According to patent US11739101B2, “Bifunctional degraders of hematopoietic progenitor kinase and therapeutic uses thereof” (Nurix Therapeutics, Inc., priority 2020, dated 2023):

Each molecule was assayed against T1, HPK1 (Homo sapiens, UniProt Q92918) (assay: HPK1 Cellular HiBiT Degradation Assay). Details: HiBiT-tagged HPK1 Jurkat cells, 24 hours, 10 uM to 0.1 nM; Dmax = 100 minus lowest % HPK1 remaining vs DMSO vehicle.
T1 construct: A HiBiT tag was introduced by CRISPR on the N terminus of HPK1 in Jurkat cells; host or cells: Jurkat (ATCC TIB-152), monoclonal CRISPR HiBiT knock-in line
T1 sequence (Q92918 whole entry): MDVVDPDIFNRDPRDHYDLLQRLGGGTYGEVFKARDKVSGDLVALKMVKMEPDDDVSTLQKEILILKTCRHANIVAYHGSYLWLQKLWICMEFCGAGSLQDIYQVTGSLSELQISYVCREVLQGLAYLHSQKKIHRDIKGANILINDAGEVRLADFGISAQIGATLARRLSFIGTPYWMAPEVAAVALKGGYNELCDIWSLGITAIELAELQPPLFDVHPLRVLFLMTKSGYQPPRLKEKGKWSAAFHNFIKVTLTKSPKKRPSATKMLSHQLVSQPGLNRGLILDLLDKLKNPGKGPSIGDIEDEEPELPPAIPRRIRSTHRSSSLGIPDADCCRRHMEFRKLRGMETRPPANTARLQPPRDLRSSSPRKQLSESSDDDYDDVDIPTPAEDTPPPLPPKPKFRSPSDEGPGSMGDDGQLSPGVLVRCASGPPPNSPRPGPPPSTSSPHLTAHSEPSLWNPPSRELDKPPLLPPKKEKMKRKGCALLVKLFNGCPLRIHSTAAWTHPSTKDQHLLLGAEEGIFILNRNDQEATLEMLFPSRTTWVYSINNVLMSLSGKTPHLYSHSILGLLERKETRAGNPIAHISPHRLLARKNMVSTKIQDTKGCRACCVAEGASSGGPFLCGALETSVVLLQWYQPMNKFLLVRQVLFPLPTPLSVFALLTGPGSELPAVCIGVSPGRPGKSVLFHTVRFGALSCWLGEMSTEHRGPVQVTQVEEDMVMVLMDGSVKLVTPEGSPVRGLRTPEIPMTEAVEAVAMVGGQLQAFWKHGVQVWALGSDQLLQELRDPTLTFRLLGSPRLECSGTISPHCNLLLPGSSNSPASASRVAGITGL
Assay type: cell-based
In short: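 Jurkat cells with CRISPR N-terminal HiBiT-tagged HPK1 were exposed to an 11-point 3.16-fold dilution series, 10 uM to 0.1 nM final, for 24 hours at 37° C./5% CO2. HPK1 was read by HiBiT lytic luminescence against DMSO as 100% and parental cells as background. Dmax is 100 minus the lowest % remaining from a four-parameter fit, with a parallel CellTiter-Glo viability check.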
With `Cc1cc(F)c(Nc2nc(-c3ccc4c(c3)N([C@H]3C[C@@H](N5CCCCC5)C3)C(=O)C43CCN(C(=O)c4ccc(N(C)C5CCN(c6ccc7c(c6)C(=O)N(C6CCC(=O)NC6=O)C7=O)CC5)cc4)CC3)cc3ncn(C(C)C)c23)cc1C(=O)NC(C)C` (stereo partly drawn) [Example 97, 5-{[6-(1′-{4-[(1-{2-[2,6-dioxopiperidin-3-yl]-1,3-dioxoisoindol-5-yl}piperidin-4-yl)(methyl)amino]benzoyl}-2-oxo-1-[(1s,3s)-3-(piperidin-1-yl)cyclobutyl]spiro[indole-3,4′-piperidin]-6-yl)-3-isopropylimidazo[4,5-c]pyridin-4-yl]amino}-4-fluoro-N-isopropyl-2-methylbenzamide] the Dmax was 45 to 65%. In the case of `Cc1cc(F)c(Nc2nc(-c3ccc4c(c3)N([C@H]3C[C@@H](N5CCCCC5)C3)C(=O)C43CCN(CCOCCOCCOCCOCCOCCOCCOCCNc4cccc5c4C(=O)N(C4CCC(=O)NC4=O)C5=O)CC3)cc3ncn(C(C)C)c23)cc1C(=O)NC(C)C` (stereo partly drawn) [Example 43, 5-[(6-{1′-[23-({2-[2,6-dioxopiperidin-3-yl]-1,3-dioxo-2,3-dihydro-1H-isoindol-4-yl}amino)-3,6,9,12,15,18,21-heptaoxatricosan-1-yl]-2-oxo-1-[(1s,3s)-3-(piperidin-1-yl)cyclobutyl]-1,2-dihydrospiro[indole-3,4′-piperidin]-6-yl}-3-(propan-2-yl)-3H-imidazo[4,5-c]pyridin-4-yl)amino]-4-fluoro-2-methyl-N-(propan-2-yl)benzamide], the Dmax is reported as over 65%. For `Cc1cc(F)c(Nc2nc(-c3ccc4c(c3)N([C@H]3C[C@@H](N5CCCCC5)C3)C(=O)C43CCN(C(=O)c4cccc(C5CCN(c6cccc7c6C(=O)N(C6CCC(=O)NC6=O)C7=O)CC5)c4)CC3)cc3ncn(C(C)C)c23)cc1C(=O)NC(C)C` (stereo partly drawn) [Example 53, 5-[(6-{1′-[3-(1-{2-[2,6-dioxopiperidin-3-yl]-1,3-dioxo-2,3-dihydro-1H-isoindol-4-yl}piperidin-4-yl)benzoyl]-2-oxo-1-[(1s,3s)-3-(piperidin-1-yl)cyclobutyl]-1,2-dihydrospiro[indole-3,4′-piperidin]-6-yl}-3-(propan-2-yl)-3H-imidazo[4,5-c]pyridin-4-yl)amino]-4-fluoro-2-methyl-N-(propan-2-yl)benzamide], the “Cellular HPK1 HiBiT: Dmax (%)” value was “B (45%≤B≤65%)”. For `Cc1cc(F)c(Nc2nc(-c3ccc4c(c3)N([C@H]3C[C@@H](N5CCCCC5)C3)C(=O)C43CCN(C(=O)CCOCCOCCOCCOCCOCCNc4cccc5c4C(=O)N(C4CCC(=O)NC4=O)C5=O)CC3)cc3ncn(C(C)C)c23)cc1C(=O)NC(C)C` (stereo partly drawn) [Example 12, 5-((6-(1′-(1-((2-(2,6-dioxopiperidin-3-yl)-1,3-dioxoisoindolin-4-yl)amino)-3,6,9,12,15-pentaoxaoctadecan-18-oyl)-2-oxo-1-((1s,3s)-3-(piperidin-1-yl)cyclobutyl)spiro[indoline-3,4′-piperidin]-6-yl)-3-isopropyl-3H-imidazo[4,5-c]pyridin-4-yl)amino)-4-fluoro-N-isopropyl-2-methylbenzamide], the Dmax was 45 to 65%. Molecule `Cc1cc(F)c(Nc2nc(-c3ccc4c(c3)N([C@H]3C[C@@H](N5CCCCC5)C3)C(=O)C43CCN(C(=O)CCOCCOCCOCCOCCNc4cccc5c4C(=O)N(C4CCC(=O)NC4=O)C5=O)CC3)cc3ncn(C(C)C)c23)cc1C(=O)NC(C)C` (stereo partly drawn) [Example 2, 5-((6-(1′-(1-((2-(2,6-dioxopiperidin-3-yl)-1,3-dioxoisoindolin-4-yl)amino)-3,6,9,12-tetraoxapentadecan-15-oyl)-2-oxo-1-((1s,3s)-3-(piperidin-1-yl)cyclobutyl)spiro[indoline-3,4′-piperidin]-6-yl)-3-isopropyl-3H-imidazo[4,5-c]pyridin-4-yl)amino)-4-fluoro-N-isopropyl-2-methylbenzamide] has a Dmax of 45 to 65%. `Cc1cc(F)c(Nc2nc(-c3ccc4c(c3)N([C@H]3C[C@@H](N5CCCCC5)C3)C(=O)C43CCN(C(=O)c4ccc(C(=O)N5CCC(c6cccc7c6C(=O)N([C@H]6CCC(=O)NC6=O)C7=O)CC5)cc4)CC3)cc3ncn(C(C)C)c23)cc1C(=O)NC(C)C` [Example 75, 5-[(6-{1′-[4-(4-{2-[2,6-dioxopiperidin-3-yl]-1,3-dioxo-2,3-dihydro-1H-isoindol-4-yl}piperidine-1-carbonyl)benzoyl]-2-oxo-1-[(1s,3s)-3-(piperidin-1-yl)cyclobutyl]-1,2-dihydrospiro[indole-3,4′-piperidin]-6-yl}-3-(propan-2-yl)-3H-imidazo[4,5-c]pyridin-4-yl)amino]-4-fluoro-2-methyl-N-(propan-2-yl)benzamide] gave a Dmax of under 45%. Molecule `Cc1cc(F)c(Nc2nc(-c3ccc4c(c3)N([C@H]3C[C@@H](N5CCCCC5)C3)C(=O)C43CCN(C(=O)CCCCCCCCCNc4cccc5c4C(=O)N(C4CCC(=O)NC4=O)C5=O)CC3)cc3ncn(C(C)C)c23)cc1C(=O)NC(C)C` (stereo partly drawn) [Example 1, 5-((6-(1′-(10-((2-(2,6-dioxopiperidin-3-yl)-1,3-dioxoisoindolin-4-yl)amino)decanoyl)-2-oxo-1-((1s,3s)-3-(piperidin-1-yl)cyclobutyl)spiro[indoline-3,4′-piperidin]-6-yl)-3-isopropyl-3H-imidazo[4,5-c]pyridin-4-yl)amino)-4-fluoro-N-isopropyl-2-methylbenzamide] has a Dmax of under 45%. For `Cc1cc(F)c(Nc2nc(-c3ccc4c(c3)N([C@H]3C[C@@H](N5CCCCC5)C3)C(=O)C43CCN(C(=O)[C@H]4CC[C@@H](C(=O)N5CCC(N(C)c6cccc7c6C(=O)N(C6CCC(=O)NC6=O)C7=O)CC5)CC4)CC3)cc3ncn(C(C)C)c23)cc1C(=O)NC(C)C` (stereo partly drawn) [Example 62, 4-fluoro-2-methyl-5-[(6-{2-oxo-1-[(1s,3s)-3-(piperidin-1-yl)cyclobutyl]-1′-[(1S,4s)-4-(4-{[2-(2,6-dioxopiperidin-3-yl)-1,3-dioxo-2,3-dihydro-1H-isoindol-4-yl](methyl)amino}piperidine-1-carbonyl)cyclohexanecarbonyl]-1,2-dihydrospiro[indole-3,4′-piperidin]-6-yl}-3-(propan-2-yl)-3H-imidazo[4,5-c]pyridin-4-yl)amino]-N-(propan-2-yl)benzamide], the Dmax was 45 to 65%. `Cc1cc(F)c(Nc2nc(-c3ccc4c(c3)N([C@H]3C[C@@H](N5CCCCC5)C3)C(=O)C43CCN(C(=O)c4ccc(C5CCN(CC(=O)NCCNc6cccc7c6C(=O)N(C6CCC(=O)NC6=O)C7=O)CC5)cc4)CC3)cc3ncn(C(C)C)c23)cc1C(=O)NC(C)C` (stereo partly drawn) [Example 88, 5-[(6-{1′-[4-(1-{[(2-{[2-(2,6-dioxopiperidin-3-yl)-1,3-dioxoisoindol-4-yl]amino}ethyl)carbamoyl]methyl}piperidin-4-yl)benzoyl]-2-oxo-1-[(1s,3s)-3-(piperidin-1-yl)cyclobutyl]spiro[indole-3,4′-piperidin]-6-yl}-3-isopropylimidazo[4,5-c]pyridin-4-yl)amino]-4-fluoro-N-isopropyl-2-methylbenzamide] showed a Dmax of over 65%. With `Cc1cc(F)c(Nc2nc(-c3ccc4c(c3)N([C@H]3C[C@@H](N5CCCCC5)C3)C(=O)C43CCN(C(=O)C4CCN(C(=O)CC5CCN(c6cccc7c6C(=O)N(C6CCC(=O)NC6=O)C7=O)CC5)CC4)CC3)cc3ncn(C(C)C)c23)cc1C(=O)NC(C)C` (stereo partly drawn) [Example 36, 5-{[6-(1′-{1-[2-(1-{2-[2,6-dioxopiperidin-3-yl]-1,3-dioxo-2,3-dihydro-1H-isoindol-4-yl}piperidin-4-yl)acetyl]piperidine-4-carbonyl}-2-oxo-1-[(1s,3s)-3-(piperidin-1-yl)cyclobutyl]-1,2-dihydrospiro[indole-3,4′-piperidin]-6-yl)-3-(propan-2-yl)-3H-imidazo[4,5-c]pyridin-4-yl]amino}-4-fluoro-2-methyl-N-(propan-2-yl)benzamide] the Dmax was under 45%. In the case of `Cc1cc(F)c(Nc2nc(-c3ccc4c(c3)N(C3CC(N5CCCCC5)C3)C(=O)C43CCN(C(=O)CCOCCOCCOCCNc4ccc5c(c4)C(=O)N(C4CCC(=O)NC4=O)C5=O)CC3)cc3ncn(C(C)C)c23)cc1C(=O)NC(C)C` (stereo not drawn) [Example 5, 5-((6-(1′-(3-(2-(2-(2-((2-(2,6-dioxopiperidin-3-yl)-1,3-dioxoisoindolin-5-yl)amino)ethoxy)ethoxy)ethoxy)propanoyl)-2-oxo-1-((1s,3s)-3-(piperidin-1-yl)cyclobutyl)spiro[indoline-3,4′-piperidin]-6-yl)-3-isopropyl-3H-imidazo[4,5-c]pyridin-4-yl)amino)-4-fluoro-N-isopropyl-2-methylbenzamide], the Dmax is reported as under 45%. Molecule `Cc1cc(F)c(Nc2nc(-c3ccc4c(c3)N([C@H]3C[C@@H](N5CCCCC5)C3)C(=O)C43CCN(C(=O)[C@@H]4CCN(C(=O)[C@H]5CC[C@H](N(C)c6cccc7c6C(=O)N(C6CCC(=O)NC6=O)C7=O)CC5)C4)CC3)cc3ncn(C(C)C)c23)cc1C(=O)NC(C)C` (stereo partly drawn) [Example 67, 4-fluoro-2-methyl-5-[(6-{2-oxo-1′-[(3R)-1-[(R,4R)-4-({2-[2,6-dioxopiperidin-3-yl]-1,3-dioxo-2,3-dihydro-1H-isoindol-4-yl}(Methyl)amino)cyclohexanecarbonyl]pyrrolidine-3-carbonyl]-1-[(1s,3s)-3-(piperidin-1-yl)cyclobutyl]-1,2-dihydrospiro[indole-3,4′-piperidin]-6-yl}-3-(propan-2-yl)-3H-imidazo[4,5-c]pyridin-4-yl)amino]-N-(propan-2-yl)benzamide] has a Dmax of over 65%.
